In patent EP4206196A1, “PYRIMIDINE SUBSTITUTED DERIVATIVES AS TYK2 INHIBITORS” (Almirall S.A., priority 2021, dated 2023):
pIC50, pKd: −log10 of the molar value.

Tests used:
[1] = test system: STAT1/3 through TYK2/JAK1; assay: IFNa induced STAT phosphorylation in HEK293 cells (SIE-bla reporter gene); type: cell-based; conditions: Homo sapiens, HEK293; HEK293T-sie-bla cells, IFNa at EC80, 4 hours; read-out: Inhibition of IFNa induced STAT phosphorylation HEK293 cells IC50
Description: Stimulation of HEK293T-sie-bla cells with interferon alpha (INFa) activates the signaling pathway of STAT1/3 through TYK2/JAK1. In this assay, measurement of the activity of the reporter gene […]-lactamase expression was used as the readout.
CellSensorTM SIE-bla HEK293T cell line were purchased from Thermo Fisher Scientific (ref. #K1649B) and cultured as specified by the provider. A number of 30.000 cells per well (40 µl) were plated in a 384-well plate (Corning ref.# 3712) and cultured overnight at 37°C with 5% CO2 in a complete Optimem media (ThermoFisher ref. #11058-021) containing 0.5% (v/v) heat inactivated dialyzed FBS (Life Technologies ref. #26400044), 10 µM non-essential aminoacids NEAA (Sigma ref. #M7145), 100 µM Sodium Pyruvate (Gibco ref. #11360-039) and 100 U/mL Penicillin (Sigma ref. #P0781). Compounds were initially dissolved in 100% DMSO. Compound curves were then prepared using a 1/5 serial dilution (10 dilutions). The dilutions were directly diluted in complete Optimem media at 40-fold their final concentration in 20% DMSO. IFNa initial solution (R&D systems ref. #11100-1) was prepared at 10-fold its EC80 in complete Optimem media. Compounds and IFNa were added simultaneously to the wells with cells and incubated during 4 hours at 37°C (the final DMSO was 0.1%). The […]-lactamase substrate (LifeTechnologies ref.#K1138) was prepared at 6-fold its final concentration as specified by the provider. Then 10 µL of the mixture was added to the wells to stop the stimulation. Plate was left in the dark over-night. Then a FRET reading was performed on an appropriate plate reader.
All experiments were analysed using an ExcelFit template and the four-parameter log equation. […] TABLE 2: IC50 Inhibitions of IFNa induced STAT phosphorylation in HEK293 cells

[2] = molecular target: T1, TYK2 (JH2domain-pseudokinase) (Homo sapiens, UniProt P29597); assay: TYK2 JH2 domain binding assay (KINOMEscan)
T1 construct: TYK2 (JH2domain-pseudokinase)-tagged T7 phage strains were prepared in an E. coli host derived from the BL21 strain; made in house; host or cells: E. coli BL21-derived host (T7 phage) or HEK-293 cells
Description: TYK2 (JH2domain-pseudokinase) KINOMEscan assay. For the assay, TYK2 (JH2domain-pseudokinase)-tagged T7 phage strains were prepared in an E. coli host derived from the BL21 strain.E. coli were grown to log-phase and infected with T7 phage and incubated with shaking at 32°C until lysis. The lysates were centrifuged and filtered to remove cell debris. The remaining TYK2 (JH2domain-pseudokinase) were produced in HEK-293 cells and subsequently tagged with DNA for qPCR detection. Streptavidin-coated magnetic beads were treated with biotinylated small molecule ligands for 30 minutes at room temperature to generate affinity resins for kinase assays. The liganded beads were blocked with excess biotin and washed with blocking buffer (SeaBlock (Pierce), 1% BSA, 0.05% Tween 20, 1 mM DTT) to remove unbound ligand and to reduce non-specific binding. Binding reactions were assembled by combining TYK2 (JH2domain-pseudokinase), liganded affinity beads, and test compounds in 1x binding buffer (20% SeaBlock, 0.17x PBS, 0.05% Tween 20, 6 mM DTT). Test compounds were prepared as 111X stocks in 100% DMSO. Kds were determined using an 11-point 3-fold compound dilution series with three DMSO control points. All compounds for Kd measurements are distributed by acoustic transfer (non-contact dispensing) in 100% DMSO. The compounds were then diluted directly into the assays such that the final concentration of DMSO was 0.9%. All reactions performed in polypropylene 384-well plate. Each was a final volume of 0.02 ml. The assay plates were incubated at room temperature with shaking for 1 hour and the affinity beads were washed with wash buffer (1x PBS, 0.05% Tween 20). The beads were then re-suspended in elution buffer (1x PBS, 0.05% Tween 20, 0.5 µM non-biotinylated affinity ligand) and incubated at room temperature with shaking for 30 minutes. The kinase concentration in the eluates was measured by qPCR. […]
An 11-point 3-fold serial dilution of each test compound was prepared in 100% DMSO at 100x final test concentration and subsequently diluted to 1x in the assay (final DMSO concentration = 1%). Most Kds were determined using a compound top concentration = 30,000 nM. If the initial Kd determined was < 0.5 nM (the lowest concentration tested), the measurement was repeated with a serial dilution starting at a lower top concentration.
Curves were fitted using a non-linear least square fit with the Levenberg-Marquardt algorithm. […] TABLE 1: Kd Affinities for Tyk2 JH2 Domain Binding Assay.

T1 sequence (P29597 589-875 limits assumed): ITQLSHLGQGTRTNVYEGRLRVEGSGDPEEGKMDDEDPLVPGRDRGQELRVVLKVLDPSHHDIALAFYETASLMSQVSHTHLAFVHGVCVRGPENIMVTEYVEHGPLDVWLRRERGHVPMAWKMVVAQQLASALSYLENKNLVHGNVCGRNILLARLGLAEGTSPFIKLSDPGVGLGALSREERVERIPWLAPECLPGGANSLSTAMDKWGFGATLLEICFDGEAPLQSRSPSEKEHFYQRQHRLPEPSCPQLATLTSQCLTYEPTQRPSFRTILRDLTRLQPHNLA

`COc1c(Nc2cc(Nc3cc(C)nc(C)n3)ncn2)cccc1-c1cnn(C)c1` [Example 15, N4-(2,6-dimethylpyrimidin-4-yl)-N6-[2-methoxy-3-(1-methylpyrazol-4-yl)phenyl]pyrimidine-4,6-diamine] gave a pIC50 [1] of 7.00 to 8.00 and a pKd [2] of 9.00 to 9.70.

In the case of `COc1c(C#N)cccc1Nc1cc(Nc2cc(C)nc(C)n2)ncn1` [Example 16, 3-[[6-[(2,6-dimethylpyrimidin-4-yl)amino]pyrimidin-4-yl]amino]-2-methoxy-benzonitrile], the pIC50 [1] was < 6.00 and the pKd [2] was 8.00 to 9.00.

In the case of `COc1c(Nc2cc(Nc3cc(C)nc(C)n3)ncn2)cccc1C(F)(F)F` [Example 18, N6-(2,6-dimethylpyrimidin-4-yl)-N4-[2-methoxy-3-(trifluoromethyl)phenyl] pyrimidine-4,6-diamine], the pIC50 [1] was < 6.00 and the pKd [2] was 8.00 to 9.00.

With `COc1c(Nc2cc(Nc3cc(C)nc(C)n3)ncn2)ccc(F)c1F` [Example 19, N4-(3,4-difluoro-2-methoxy-phenyl)-N6-(2,6-dimethylpyrimidin-4-yl)pyrimidine-4,6-diamine] the pIC50 [1] was < 6.00 and the pKd [2] was 8.00 to 9.00.

`COc1cccc(Nc2cc(Nc3cc(C)nc(C)n3)ncn2)c1OC` [Example 20, N4-(2,3-dimethoxyphenyl)-N6-(2,6-dimethylpyrimidin-4-yl)pyrimidine-4,6-diamine] was tested, and the pIC50 [1] was 6.00 to 7.00 and the pKd [2] was 9.00 to 9.70.

With `COc1cc(F)ccc1Nc1cc(Nc2cc(C)nc(C)n2)ncn1` [Example 21, N4-(2,6-dimethylpyrimidin-4-yl)-N6-(4-fluoro-2-methoxy-phenyl)pyrimidine-4,6-diamine] the pIC50 [1] was < 6.00 and the pKd [2] was 8.00 to 9.00.

For `COc1cc(C(F)(F)F)ccc1Nc1cc(Nc2cc(C)nc(C)n2)ncn1` [Example 22, N6-(2,6-dimethylpyrimidin-4-yl)-N4-[2-methoxy-4-(trifluoromethyl)phenyl]pyrimidine-4,6-diamine], the pIC50 [1] was 6.00 to 7.00 and the pKd [2] was < 8.00.

With `COc1ccccc1Nc1cc(Nc2cc(C)nc(C)n2)ncn1` [Example 23, N6-(2,6-dimethylpyrimidin-4-yl)-N4-(2-methoxyphenyl)pyrimidine-4,6-diamine] the pIC50 [1] was 6.00 to 7.00 and the pKd [2] was 8.00 to 9.00.

In the case of `Cc1cc(Nc2cc(Nc3ccc(-c4cncn4C)cc3N(C)S(C)(=O)=O)ncn2)nc(C)n1` [Example 24, N-[2-[[6-[(2,6-dimethylpyrimidin-4-yl)amino]pyrimidin-4-yl]amino]-5-(3-methylimidazol-4-yl)phenyl]-N-methyl-methanesulfonamide], the pIC50 [1] was 7.00 to 8.00 and the pKd [2] was > 9.70.

In the case of `COc1cc(C#N)cnc1Nc1cc(Nc2cc(C)nc(C)n2)ncn1` [Example 27, 6-[[6-[(2,6-dimethylpyrimidin-4-yl)amino]pyrimidin-4-yl]amino]-5-methoxy-pyridine-3-carbonitrile], the pIC50 [1] was < 6.00 and the pKd [2] was < 8.00.

For `Cc1cc(Nc2cc(Nc3ccccc3P(C)(C)=O)ncn2)nc(C)n1` [Example 28, 4-N-(2-dimethylphosphorylphenyl)-6-N-(2,6-dimethylpyrimidin-4-yl)pyrimidine-4,6-diamine], the pIC50 [1] was < 6.00 and the pKd [2] was 9.00 to 9.70.

For `COc1c(Nc2cc(Nc3cc(C)nc(C)n3)ncn2)cccc1-c1nc(C(F)(F)F)n(C)n1` [Example 29, N6-(2,6-dimethylpyrimidin-4-yl)-N4-[2-methoxy-3-[1-methyl-5-(trifluoromethyl)-1,2,4-triazol-3-yl]phenyl]pyrimidine-4,6-diamine], the pIC50 [1] was < 6.00 and the pKd [2] was 8.00 to 9.00.

`COCc1nc(-c2cccc(Nc3cc(Nc4cc(C)nc(C)n4)ncn3)c2OC)no1` [Example 30, N4-(2,6-dimethylpyrimidin-4-yl)-N6-[2-methoxy-3-[5-(methoxymethyl)-1,2,4-oxadiazol-3-yl]phenyl]pyrimidine-4,6-diamine] gave a pIC50 [1] of 6.00 to 7.00 and a pKd [2] of 9.00 to 9.70.

Work on `COc1c(Nc2cc(Nc3cc(C)nc(C)n3)ncn2)cccc1-c1ncc(F)cn1` [Example 31, N4-(2,6-dimethylpyrimidin-4-yl)-N6-[3-(5-fluoropyrimidin-2-yl)-2-methoxy-phenyl]pyrimidine-4,6-diamine] yielded a pIC50 [1] of 6.00 to 7.00 and a pKd [2] of 9.00 to 9.70.

In the case of `COc1c(Nc2cc(Nc3cc(C)ncn3)ncn2)cccc1-c1ncn(C)n1` [Example 33, N6-[2-methoxy-3-(1-methyl-1,2,4-triazol-3-yl)phenyl]-N4-(6-methylpyrimidin-4-yl)pyrimidine-4,6-diamine], the pIC50 [1] was 7.00 to 8.00 and the pKd [2] was > 9.70.

With `[2H]C([2H])([2H])N(c1ccccc1Nc1cc(Nc2cc(C)nc(C)n2)ncn1)S(C)(=O)=O` [Example 34, N-[2-[[6-[(2,6-dimethylpyrimidin-4-yl)amino]pyrimidin-4-yl]amino]phenyl]-N-(trideuteriomethyl)methanesulfonamide] the pIC50 [1] was > 8.00 and the pKd [2] was > 9.70.

`COc1c(Nc2cc(Nc3cc(C)nc(C)n3)ncn2)cccc1-c1cc(C(F)(F)F)nn1C` [Example 36, N6-(2,6-dimethylpyrimidin-4-yl)-N4-[2-methoxy-3-[2-methyl-5-(trifluoromethyl)pyrazol-3-yl]phenyl]pyrimidine-4,6-diamine] was tested, and the pIC50 [1] was < 6.00 and the pKd [2] was 8.00 to 9.00.

With `COc1c(Nc2cc(Nc3cc(C)nc(C)n3)ncn2)cccc1-c1nc(C)n(CC(F)(F)F)n1` [Example 38, N6-(2,6-dimethylpyrimidin-4-yl)-N4-[2-methoxy-3-[5-methyl-1-(2,2,2-trifluoroethyl)-1,2,4-triazol-3-yl]phenyl]pyrimidine-4,6-diamine] the pIC50 [1] was 7.00 to 8.00 and the pKd [2] was 9.00 to 9.70.

In the case of `COc1c(Nc2cc(Nc3cc(C)nc(C)n3)ncn2)cccc1-c1nc(C)n(C)n1` [Example 39, N6-(2,6-dimethylpyrimidin-4-yl)-N4-[3-(1,5-dimethyl-1,2,4-triazol-3-yl)-2-methoxy-phenyl]pyrimidine-4,6-diamine], the pIC50 [1] was 6.00 to 7.00 and the pKd [2] was 9.00 to 9.70.

For `COc1c(Nc2cc(Nc3cc(C)nc(C)n3)ncn2)cccc1-c1nc(C)nn1C` [Example 40, N6-(2,6-dimethylpyrimidin-4-yl)-N4-[3-(2,5-dimethyl-1,2,4-triazol-3-yl)-2-methoxy-phenyl]pyrimidine-4,6-diamine], the pIC50 [1] was 6.00 to 7.00 and the pKd [2] was 8.00 to 9.00.

In the case of `COc1c(Nc2cc(Nc3cc(C)nc(C)n3)ncn2)cccc1-c1nnn(C)n1` [Example 41, N4-(2,6-dimethylpyrimidin-4-yl)-N6-[2-methoxy-3-(2-methyltetrazol-5-yl)phenyl]pyrimidine-4,6-diamine], the pIC50 [1] was 7.00 to 8.00 and the pKd [2] was > 9.70.

In the case of `COc1c(Nc2cc(Nc3cc(C)nc(C)n3)ncn2)cccc1-c1ccnnc1` [Example 42, N6-(2,6-dimethylpyrimidin-4-yl)-N4-(2-methoxy-3-pyridazin-4-yl-phenyl)pyrimidine-4,6-diamine], the pIC50 [1] was < 6.00 and the pKd [2] was 8.00 to 9.00.

In the case of `COc1c(Nc2cc(Nc3cc(C)nc(C)n3)ncn2)cccc1-c1ncn(C2COC2)n1` [Example 43, N4-(2,6-dimethylpyrimidin-4-yl)-N6-[2-methoxy-3-[1-(oxetan-3-yl)-1,2,4-triazol-3-yl]phenyl]pyrimidine-4,6-diamine], the pIC50 [1] was 6.00 to 7.00 and the pKd [2] was 9.00 to 9.70.
